According to US11752210B2, “Sensitizing composition using electromagnetic waves for thermal therapy of cancers, and cancer therapy using same” (JINIS CO., LTD., priority 2013, dated 2023):
Like-named read-outs stand apart in the source and are kept apart here.

How the values were obtained:
apotransferrin = apotransferrin (Homo sapiens, UniProt P02787); conditions: apotransferrin 200 mg/dL, 37° C. 30 min
Procedure: In order to evaluate binding capacity of the metal ion to apotransferrin, transferrin binding capacity (Unsaturated Iron-Binding Capacity, UIBC) was measured as follows depending on the concentration of iron ion (ferric iron, FeIII+).
Specifically, in order to prepare iron ion aqueous solutions, 3.6 g of FeCl3 (Sigma Aldrich, USA) was dissolved in 400 ml of distilled water with stirring for 20 min or longer, and then the pH of the resulting solution was adjusted to 9 with continuous stirring while a 5M NaOH solution was added dropwise. When a red brownish precipitate appeared, it was stirred at 90° C. for 2 hr and was then centrifuged at 5,000 rpm for 5 min, thus obtaining a ferric hydroxide precipitate, which was then washed with distilled water and dried. The ferric hydroxide in powder form was dissolved in distilled water, yielding ferric hydroxide solutions having concentrations of […]. Each of the ferric hydroxide solutions at individual concentrations was added with 200 mg/dL of apotransferrin (Sigma Aldrich, USA), and mixed in a vortex for 1 min, followed by allowing the reaction between apotransferrin and iron ion to progress at 37° C. for 30 min.
In order to measure the unsaturated iron-binding capacity (UIBC) of apotransferrin, a Ferrozine colorimetric method was used. As the iron standard, ferrous chloride was prepared at a concentration of […] in hydroxylamine hydrochloride, and the reaction solution of apotransferrin and iron was prepared as a test group. Specifically, 2 ml of 0.5M Tris buffer (pH 8) was aliquoted into all test tubes. The blank test tube was filled with 1 ml of distilled water, the standard test tube was filled with 0.5 ml of distilled water and 0.5 ml of the iron standard, and the experimental test tube was filled with 0.5 ml of the reaction solution of apotransferrin and iron ion and 0.5 ml of the iron standard, followed by mixing in a vortex for 1 min.
A spectrophotometer was zeroed at 560 nm, and the absorbance A1 was measured. Next, a 16.6 mM Ferrozine hydroxylamine hydrochloride solution was placed in an amount of […] in each of the test tubes, followed by mixing in a vortex for 1 min. All the test tubes were cultured at 37° C. for 10 min, and the absorbance A2 at 560 nm was measured. The absorbance A560 at 560 nm was calculated by subtracting the absorbance A1 from the absorbance A2.
The unsaturated iron-binding capacity (UIBC) was calculated as follows. UIBC=[standard conc.]−[standard conc.]×Test A560/Standard A560

[1] = test system: NCI-H460-luc2 tumor xenograft; assay: Thermal cancer therapy with sensitizer, bioluminescence imaging of tumor size in the last week (Example 1, FIG. 12); type: in vivo, BALB/c athymic nude mice; conditions: i.v. 1 mg/kg metal ion-bound material or 20 mg/kg transferrin, 100 W 10 min, three times per week, four weeks
Procedure: Next, the potential to treat cancer was evaluated using the metal ion-bound material as the sensitizer upon thermal therapy. A lung cancer cell line NCI-H460-luc2 ([…] Sciences) was cultured, and 5×10^6 cells were subcutaneously injected into 6 to 8-week-old female BALB/c athymic nude mice (Damul Science), and the mice were bred for about 10 days so as to grow tumorous tissue to a size of 100 mm^3 or more, yielding the tumor xenograft animal models for the evaluation of cancer treatment effects. […] After 4 hr, thermal treatment was performed three times per week for a total of four weeks using a radio-frequency hyperthermia system (EHY-2000, Oncothermia) with an energy dose of 100 W for 10 min. As such, a non-treated group and a saline-treated group were set as controls. In order to analyze the size of tumorous tissue in the last week, bioluminescence imaging was performed. For bioluminescence of a luciferase-expressing cancer cell line NCI-H460-luc2, D-luciferin (Xenogen, USA) was intraperitoneally injected at a concentration of 150 mg luciferin/kg/d into the mice, the mice were anesthetized through inhalation using a mixture of isoflurane gas and oxygen, and luminous cancer cells were subjected to overlap photographing using a Xenogen imager (IVIS 200), and analyzed using Igor Pro imaging analysis software.

[2] = test system: NCI-H460-luc2 tumor xenograft; assay: Thermal cancer therapy with repeated sensitizer dosing, weekly bioluminescence imaging of tumor size over four weeks (Example 1, FIG. 13); type: in vivo, BALB/c athymic nude mice; conditions: i.v. three times per week, 0.1 ml of 0.2 mg/ml (iron dextran, iron sucrose) or 5 mg/ml (transferrin); 100 W 30 min or more; four weeks
Procedure: After 4 hr, thermal treatment for 30 min or more using a radio-frequency hyperthermia system (EHY-2000, Oncothermia) with an energy dose of 100 W was performed for a total of four weeks, and the size of tumorous tissue was monitored every week. […] In the group to which transferrin was administered, 0.1 ml of the transferrin aqueous solution having a concentration of 5 mg/ml was intravenously injected. As such, the non-treated group and the saline-treated group were used as controls.
In order to analyze the size of tumorous tissue, bioluminescence imaging was regularly performed at an interval of one week, and analysis was performed using Igor Pro imaging analysis software.

[3] = test system: NCI-H460-luc2 tumor xenograft; assay: Temperature of normal and tumorous tissue of tumor xenograft mice on application of electromagnetic waves after sensitizer (Example 1, FIGS. 9 to 11); type: in vivo, BALB/c athymic nude mice; conditions: i.v. iron sucrose 1 mg/kg or transferrin 20 mg/kg, 4 hr after administration, 100 W for 3 min
Procedure: To this end, a lung cancer cell line NCI-H460-luc2 (Califer Life Sciences) was cultured, and 5×10^6 cells were subcutaneously injected into 6 to 8-week-old female BALB/c athymic nude mice (Damul Science), and the mice were bred for about 10 days so as to grow tumorous tissue to a size of 100 mm^3 or more, yielding the tumor xenograft animal models for the evaluation of cancer treatment effects.
As the sensitizing composition for thermal therapy, iron sucrose was prepared in the same manner as in Test Example 1, and 0.1 ml of the iron sucrose aqueous solution having a concentration of 0.2 mg/ml was intravenously injected into the established tumor xenograft mice so as to reach a dose of 1 mg/kg.
As the sensitizing composition for thermal therapy, “iron ion-bound apotransferrin” (transferrin) was prepared in the same manner as in Test Example 3, and 0.1 ml of the transferrin aqueous solution having a concentration of 5 mg/ml was intravenously injected into the established tumor xenograft mice so as to reach a dose of 20 mg/kg.
As the control, saline was administered. 4 hr after administration, electromagnetic waves were applied in an energy dose of 100 W for 3 min using a radio-frequency hyperthermia system (EHY-2000, Oncothermia), and the temperatures of normal tissue and tumorous tissue were measured using a thermal imaging device (E60, Korea Rental, Korea).

[4] = In vivo accumulation of metal ion in normal and tumorous tissue, ICP-MS (Test Example 5); set-up: species or system BALB/c athymic nude mice; concentration of iron ion (ICP-MS): unit not given here; conditions: 1 mg/kg i.v., after 24 hr
Procedure: In order to evaluate the accumulation of the administered metal ion in tumorous tissue through in vivo animal testing, tumor xenograft animal models were manufactured as follows. Specifically, a lung cancer cell line NCI-H460-luc2 (Califer Life Sciences) was cultured, and 5×10^6 cells were subcutaneously injected into 6- to 8-week-old female BALB/c athymic nude mice (Damul Science), and the mice were bred for about 10 days so as to grow tumorous tissue to a size of 100 mm^3 or more, yielding the tumor xenograft animal models.
After 24 hr, in order to carry out inductively coupled plasma mass spectrometry (ICP-MS), 1 g of each tissue was ground using a tissue grinder in an ice bath, and 1 ml of the ground solution was dried at −60° C. in a vacuum of 7 μmHg for 24 hr. The dried powder was added with 2 ml of 6N HCl, placed in a sealed glass reactor, and cultured in an incubator at 55° C. After 12 hr or longer, each sample was mixed in a vortex and then centrifuged at 1,000 rpm for 15 min, and the supernatant was dried with nitrogen gas, added with 1 ml of 0.01N HCl, mixed in a vortex, and then centrifuged at 1,000 rpm for 15 min. The supernatant was recovered, and the concentrations of the metal ions in the normal tissue and the tumorous tissue were measured through ICP-MS (Varian 800-MS, Palo Alto, US).

apotransferrin, sequence (P02787 20-698): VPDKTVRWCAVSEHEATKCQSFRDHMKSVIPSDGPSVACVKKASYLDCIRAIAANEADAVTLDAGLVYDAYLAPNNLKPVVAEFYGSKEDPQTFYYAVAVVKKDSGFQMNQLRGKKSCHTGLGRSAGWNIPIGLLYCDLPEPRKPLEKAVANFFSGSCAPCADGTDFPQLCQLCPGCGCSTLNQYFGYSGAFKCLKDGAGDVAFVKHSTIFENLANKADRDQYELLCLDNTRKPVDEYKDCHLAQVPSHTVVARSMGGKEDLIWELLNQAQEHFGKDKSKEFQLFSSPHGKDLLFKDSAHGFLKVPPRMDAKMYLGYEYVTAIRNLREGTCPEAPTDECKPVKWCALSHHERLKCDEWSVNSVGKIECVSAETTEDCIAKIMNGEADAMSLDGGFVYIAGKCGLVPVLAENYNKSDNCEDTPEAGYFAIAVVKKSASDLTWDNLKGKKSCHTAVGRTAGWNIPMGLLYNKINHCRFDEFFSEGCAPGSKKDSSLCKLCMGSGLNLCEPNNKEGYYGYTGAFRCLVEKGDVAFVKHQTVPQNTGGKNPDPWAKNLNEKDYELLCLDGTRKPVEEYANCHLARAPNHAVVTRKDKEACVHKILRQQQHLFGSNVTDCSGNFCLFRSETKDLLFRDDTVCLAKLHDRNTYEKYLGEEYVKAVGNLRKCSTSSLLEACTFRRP

[Fe+3].[OH-].[OH-].[OH-] [iron ion, ferric hydroxide]
UIBC (apotransferrin; Iron conc. 10 μg/dL): 498 µg/dL | UIBC (apotransferrin; Iron conc. 50 μg/dL): 481 µg/dL | UIBC (apotransferrin; Iron conc. 200 μg/dL): 332 µg/dL | UIBC (apotransferrin; Iron conc. 500 μg/dL): 119 µg/dL

Iron dextran [reference compound]
cancer treatment effects through thermal therapy (size of tumorous tissue, bioluminescence imaging) [1]: excellent | growth of cancer upon thermal treatment using electromagnetic waves (bioluminescence imaging) [2]: significantly reduced

ferric hydroxide sucrose complex [Iron sucrose]
cancer treatment effects through thermal therapy (size of tumorous tissue, bioluminescence imaging) [1]: excellent | changes in the temperature before and after the application of electromagnetic waves ([3]; normal tissue): 1 °C | changes in the temperature before and after the application of electromagnetic waves ([3]; tumorous tissue): 1.9 °C | Fold increase of iron ion vs saline ([4]; Brain): 2.05 | concentration of iron ion (ICP-MS) ([4]; Brain): 46.2 ± 8.6 | Fold increase of iron ion vs saline ([4]; Heart): 3.08 | concentration of iron ion (ICP-MS) ([4]; Heart): 99.2 ± 2.8 | Fold increase of iron ion vs saline ([4]; Kidney): 1.05 | concentration of iron ion (ICP-MS) ([4]; Kidney): 59.8 ± 4.1 | Fold increase of iron ion vs saline ([4]; Liver): 2.26 | concentration of iron ion (ICP-MS) ([4]; Liver): 168.2 ± 37.3 | Fold increase of iron ion vs saline ([4]; Muscle): 0.98 | concentration of iron ion (ICP-MS) ([4]; Muscle): 28.9 ± 22.1 | Fold increase of iron ion vs saline ([4]; Stomach): 2.99 | concentration of iron ion (ICP-MS) ([4]; Stomach): 83.1 ± 27.7 | concentration of iron ion (ICP-MS) ([4]; Tumor): 44.4 ± 3.9 | Fold increase of iron ion vs saline ([4]; Tumor, 1 mg/kg): ≥ 3.3 | Fold increase of iron ion vs saline ([4]; Tumor, listed as Fe-Sucrose, 1 mg/kg): 3.29 | growth of cancer upon thermal treatment using electromagnetic waves (bioluminescence imaging) [2]: significantly reduced
